Results on 5 compounds are retold here after US20100240065A1, “Prolyl Hydroxylase Compositions and Methods of Use Thereof” (Boehringer Ingelheim International GmbH, priority 2009, published 2010).

For test [1], the system named is recombinant rhesus HPH protein. Briefly: HPH enzyme activity assay, effect of cofactors and metal ions (isoform not given). In kind it is biochemical, rhesus (Macaca mulatta).
The target in a further test is rhesus HPH1 (Macaca mulatta, UniProt I2CX88). Briefly: biochemical. The method, then:
(§1) The VBC protein complex was generated by co-expression of Glutathione S-Transferase-VHL (von Hippel Lindau), elongin B and elongin C in Escherichia coli followed by purification of the complex using glutathione affinity resin and size-exclusion chromatography. The HPH enzyme assay is conducted in the well of a 96- or 384-well plate. […] The time-resolved fluorescent signal (excitation at 330 nm; emission at 620 and 665 nm) is read on a plate reader after 1 h of incubation. The ratio of signal at 665 nm to 620 nm is used to calculate the amount of peptide interaction with GST-VBC as a measure of protein hydroxylation.
(§2) The activity of the HPH proteins was measured using an assay dependent upon VBC-recognition of a hydroxylated peptide. The VBC protein complex was generated by co-expression of Glutathione S-Transferase-VHL (von Hippel Lindau), elongin B and elongin C in Escherichia coli followed by purification of the complex using glutathione affinity resin and size-exclusion chromatography. The HPH enzyme assay is conducted in the well of a 96- or 384-well plate. […] The ratio of signal at 665 nm to 620 nm is used to calculate the amount of peptide interaction with GST-VBC as a measure of protein hydroxylation.

The target of another test is T1, rhesus HPH3 (Macaca mulatta, UniProt H9FPE4).
T1 construct: fused on or other part: C-terminal GST tag used for purification and removed with thrombin before the assay
Briefly: HPH enzyme TR-FRET assay (VBC-recognition of hydroxylated HIF peptide), HPH3. The following applies: inhibitory activity against rhesus HPH3. In kind it is biochemical.

The next test addresses rhesus HPH2 (Macaca mulatta, UniProt I2CX88). The following applies: read-out: IC50 HPH2; inhibitory activity against rhesus HPH2. The method, then:
as §1, §2

Read-outs that look alike come from different tables or passages of the source.

rhesus HPH1, sequence (I2CX88 1-426): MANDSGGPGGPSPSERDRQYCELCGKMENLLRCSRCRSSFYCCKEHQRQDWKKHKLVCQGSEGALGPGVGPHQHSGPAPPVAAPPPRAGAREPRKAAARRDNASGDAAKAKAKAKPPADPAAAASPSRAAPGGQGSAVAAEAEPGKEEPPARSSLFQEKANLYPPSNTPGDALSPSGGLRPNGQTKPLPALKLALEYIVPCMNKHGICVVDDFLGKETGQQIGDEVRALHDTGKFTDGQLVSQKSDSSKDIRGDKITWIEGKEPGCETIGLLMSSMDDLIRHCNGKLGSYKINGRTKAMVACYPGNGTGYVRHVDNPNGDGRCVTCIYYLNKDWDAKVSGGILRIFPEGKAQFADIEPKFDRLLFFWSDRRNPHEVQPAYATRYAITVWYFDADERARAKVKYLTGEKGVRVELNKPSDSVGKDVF
rhesus HPH2, sequence (I2CX88 1-426): as above

`[Cl-].[Cl-].[Co+2]` [CoCl2]: in test [1], the “effect of addition on enzyme activity” value is recorded as “inhibited enzyme activity”. What is called IC50 is the concentration that gives 50% inhibition. For the compound `NNc1nncc2ccccc12` [Hydralazine], the 50% inhibitory concentration (IC50) came out at 400 µM against rhesus HPH1 and 54 µM against rhesus HPH3. The compound `O=C(O)CNC(=O)C(=O)O` [N-oxalylglycine] gave an IC50 against rhesus HPH3 of 0.66 µM. `O=C(O)CCC(=O)O` [Succinate]: the IC50 at rhesus HPH1 (read-out: IC50 HPH1, inhibitory activity against rhesus HPH1) was determined as 200 µM; at rhesus HPH2, 380 µM; against rhesus HPH3, 80 µM. For `[Fe+2]` [ferrous iron], the “effect of addition on enzyme activity” value in test [1] (recombinant rhesus HPH, isoform not stated) is “increased the activity of the enzyme”.
